The results in this text go back to US8822216B2, “DNA regulatory element for the expression of transgenes in neurons of a subject and uses thereof” (priority 1997, dated 2014).

Data set [1] concerns Schaffer collateral-CA1 synapse. Briefly: Chemically induced slow-onset potentiation (L-LTP) in hippocampal slices. The format is cell-based, mouse. As to the method: FIG. 13C) and FIG. 13D): Drug was added at the time indicated in both panels at a concentration of 100 µM. Each point in the time courses represents the mean fEPSP slope±SEM normalized to the average of the predrug fEPSP slope. Insets show representative fEPSP traces just before drug addition and 3 hours after.
Is this reduction due to a direct effect on downstream components of L-LTP, or is it due to a failure to fully initiate L-LTP? To begin to explore this question we examined L-LTP evoked by pharmacological activation of the […], which bypasses tetanic stimulation in area CA1. In addition to being evoked through multiple high frequency tetani to the Schaffer collaterals, L-LTP in area CA1 can be induced chemically through either application of D1/D5 dopamine receptor agonists or direct activators of adenylyl cyclase and PKA. In wild-type slices, application of agonists of D1/D5 dopamine receptors or the PKA agonist Sp-cAMPS, result in a slow-onset potentiation of synaptic transmission that is sensitive to protein and RNA-synthesis inhibitors, and mutually occlusive with L-LTP elicited by multiple high frequency trains (Huang and Kandel, 1994; Huang et al., 1994; Bolshakov et al., 1997). If overexpression of calcineurin directly affects the machinery necessary to produce the late phase, pharmacologically-induced L-LTP, that bypasses E- and I-LTP, would be impaired in CN98-mutant mice, as is the case with the late phase deficit in tPA-knockout mice (Huang et al., 1996a).
We tested the ability of both the D1/D5 receptor agonist 6-Br-APB (100 μM) and the PKA activator Sp-cAMPs (100 μM) to elicit slow-onset potentiation at the Schaffer collateral-CA1 synapse in CN98 mice.
For extracellular recordings, ACSF-filled glass electrodes (1-3 MΩ) were positioned in the stratum radiatum of area CA1. A bipolar nichrome stimulating electrode was also placed in stratum radiatum for stimulation of Schaffer collateral afferents (0.05 ms duration). […]

Data set [2] concerns Schaffer collateral-CA1 pyramidal cell synapse. Briefly: LTP induced by two 100 Hz trains in hippocampal slices. It is filed as cell-based, mouse. Particulars: for LTP induced by two 100 Hz trains in mutant mice after pretreatment: Tet-CN279 mutant slices, 750 nM calyculin A for 30 minutes. The source says:
In an attempt to isolate, in still another way, the novel intermediate phase in which PKA acts to suppress a phosphatase cascade we varied the number of tetanic trains of stimulation. One of the characteristics that distinguishes E-LTP from L-LTP is that weak stimuli such as a single 100 Hz train elicit E-LTP but not L-LTP. In contrast, to reliably induce L-LTP, 3-4 repeated 100 Hz trains are required. We therefore sought to determine if an intermediate phase of LTP could also be distinguished from these phases based on the strength of stimulus required. We elicited LTP with two 100 Hz trains spaced by 20 seconds. This protocol elicited LTP that was more robust than that elicited by one 100 Hz train, but less maintained than that elicited by four trains (FIG. 14C). In contrast to LTP elicited by a single 100 Hz train which is not affected by inhibitors of PKA (Huang et al., 1996), LTP elicited by two trains was partially sensitive to the PKA inhibitor KT5720 (no drug: […]; 1 μM KT5720: 153±5% of baseline at 1 hr, 5 slices, 4 mice; […]; FIG. 14D). […] These two types of experiments reveal a novel intermediate phase of LTP (I-LTP) exists that requires 1) a stronger stimulus than E-LTP, and 2) the activation of PKA.
Transverse hippocampal slices were prepared as previously described (Huang and Kandel, 1994). Mice of either sex, aged 7-18 weeks were used. In all appropriate cases, the experimenter was blinded to animal genotype. Hippocampi was rapidly unilaterally dissected out on ice, and […] slices were cut on a McIlwain tissue chopper and placed in oxygenated ACSF (NaCl, 124 mM, KCl, 4.4 mM; CaCl2, 2.5 mM; MgSO4, 1.3 mM; NaH2PO4, 1 mM; glucose, 10 mM; and NaHCO3 26 mM). The slices were then transferred to an interface chamber where they were subfused with oxygenated ACSF (1-2 ml/min) and allowed to equilibrate for 60-90 min at 28° C.
For extracellular recordings, ACSF-filled glass electrodes (1-3 MΩ) were positioned in the stratum radiatum of area CA1. A bipolar nichrome stimulating electrode was also placed in stratum radiatum for stimulation of Schaffer collateral afferents (0.05 ms duration). Unless otherwise mentioned, test stimuli were applied at a frequency of 1 per minute (0.017 Hz), and at a stimulus intensity that elicits a fEPSP slope that was 35% of the maximum. Experiments in which a significant change in the fiber volley amplitude occurred, were discarded. Drugs were applied through the perfusion medium. DL-AP5, calyculin A, KT5720 and R(+)-6-Bromo-[…]-3-allyl-1-phenyl-2,3,4-tetrahydro-1H-3-benzazepine (6-Br-APB) were purchased from Research Biochemicals International, Natick, Mass. DL-AP5 was dissolved directly into ACSF prior to use. Calyculin A, KT5720 and 6-Br-APB were dissolved as 100× stocks in DMSO and diluted into ACSF just before use. Sp-cAMPS (Biolog, La Jolla, Calif.) was dissolved directly in ACSF.

Data set [3] deals with CaMKII. Briefly: CaMKII enzyme activity in striatum of B21 double transgenic mice on doxycycline. It is filed as in vivo, mouse. As to the method: In double transgenic mice, a high level of expression of the CaMKII-Asp mRNA was obtained (FIGS. 5B and 7A-D). To determine the effect of this expression on enzyme activity. CaMKII activity was measured in the striatum of the B21 line of mice (Table 1).
Brains were removed and the striatum was dissected and immediately homogenized in 20 mM tris-HCl (pH 7.5), 0.5 mM EGTA, 0.5 mM EDTA, 2 mM leupeptin, 0.4 mM dithiothreitol, 0.1 mM phenylmethysulfonyl flouride, 0.4 mM molybdate, and 10 mM sodium pyrophosphate. CaMKII enzyme activity was determined as described (Mayford et al., 1995). B21+Dox animals received doxycycline (1 mg/ml) plus 5% sucrose in the drinking water for 3 to 5 weeks. B21+Dox withdrawal animals received doxycycline (1 mg/ml) for 3 to 5 weeks and were then switched to normal water for 6 weeks. The number of mice is given in parentheses.

Data set [4] deals with Schaffer collateral LTP in CA1 of hippocampal slices. Briefly: 10-Hz LTP in CA1 of hippocampal slices (field EPSP slope). It is filed as cell-based, mouse. The conditions noted are these: doxycycline 1 mg/ml drinking water 2 to 3 weeks, 1 ng/ml in perfusate.
Data set [5] has as its system wild-type mice. Briefly: Effect of doxycycline itself on memory of wild-type mice. It is filed as in vivo, mouse.
In data set [6] the test system is Schaffer collateral-CA1 pyramidal cell synapse. The format is cell-based, mouse. Particulars: wild-type slices.
The test system of data set [7] is calcineurin. Briefly: Phosphatase assay in hippocampal extracts. It is filed as biochemical, mouse. As for the experimental part: Phosphatase assays were performed according to Hubbard and Klee (1991). Briefly, mice were injected with 5 ml/kg of pentobarbital and decapitated. Hippocampi were dissected out, homogenized in 2 mM EDTA (pH 8), 250 mM sucrose, 0.1% Bmercaptoethanol and centrifuged. Supernatants were diluted in 40 mM Tris-HCl (pH 8), 0.1M NaCl, 0.04 mg/ml bovine serum albumin, 1 mM DTT, […] (Buffer 1) and incubated at 30° C. for 1 min in Buffer 1 containing 1 mM of the peptide [γ^32P]-RII subunit of cyclic AMP-dependent protein kinase (PKA) and either 0.1 mM calmodulin (Sigma) and 0.66 mM Ca^2+ or 0.33 mM EGTA (pH 7.5). The peptide ^97[Ala]-RII (Peninsula Labs) was labeled with 0.3 roM [γ^32P]ATP (NEN) using 4 mg catalytic subunit of PKA (Fluka). The reaction was stopped with 5% TCA in 0.1 M KH2P04 and the enzyme activity was calculated as previously described (Klee et al., 1983) and is expressed in nmol Pi release/min/mg protein. The protein concentration was determined using the bicinchroninic acid protein assay kit (Sigma). All samples were performed in triplicate.
Phosphatase assays were performed as described in Winder et al., 1997. Briefly, mice were injected with 5 ml/kg of pentobarbital and decapitated. Hippocampi were dissected out, homogenized in 2 mM EDTA (pH 8), 250 mM sucrose, 0.1 k β-mercaptoethanol. Supernatants were incubated at 30° C. for 1 min in presence of the […] [Ala97]-RII peptide and either 0.1 mM calmodulin and 0.66 mM Ca^2+ or 0.33 mM EGTA. The reaction was stopped and the enzyme activity calculated previously as described (Klee et al., 1983; 1987). The activity was expressed in nmol Pi released/min/mg protein. The protein concentration was determined using the bicinchroninic acid protein assay kit (Sigma). All samples were performed in triplicate.

Data set [8] deals with NMDA receptors. Briefly: NMDA-mediated synaptic field potentials in hippocampal slices (DNQX, reduced Mg2+). It is filed as cell-based, mouse.
The mark [9] stands for this setting: Dox withdrawal: doxycycline 1 mg/ml 3 to 5 weeks, then normal water 6 weeks.
Where [10] appears, read: doxycycline 1 mg/ml plus 5% sucrose in drinking water 3 to 5 weeks.

For `Nc1ncnc2c1ncn2[C@@H]1O[C@@H]2COP(O)(=S)O[C@H]2[C@H]1O` (stereo partly drawn) [Sp-cAMPS], the “fEPSP slope, % of baseline at 3 hr after drug application” value was 204±40% in data set [1] (CN98 wild-type, printed as Sp-cAMPS application, 100 μM) and 124±13% in data set [1] (wild-type, Sp-cAMPS 100 μM).

For the molecule `COC[C@@H]([C@H](O)[C@H](O)C(=O)NCC[C@H](C)c1nc(/C=C/C[C@@H]2O[C@]3(C[C@@H](O)[C@@H]2C)O[C@H]([C@H](C[C@H](O)[C@H](C)[C@H](O)[C@H](C)/C=C(C)/C(C)=C/C=C/C(C)=C\C#N)OC)[C@H](OP(=O)(O)O)C3(C)C)co1)N(C)C` [calyculin A], the “LTP induced by two 100 Hz trains in mutant mice after pretreatment” value in data set [2] was “indistinguishable from that seen in wild-type”; in data set [2] (listed as Calyculin A), “rescues the deficit”.

For `C[C@H]1c2cccc(O)c2C(=O)C2=C(O)[C@]3(O)C(=O)C(C(N)=O)=C(O)[C@@H](N(C)C)[C@@H]3[C@@H](O)[C@@H]21` [doxycycline], the figures for the “CaMKII Activity Ca^2+-independent (%)” value in data set [3] (setting [9]) and in data set [3] (setting [10]) were 5.70 ± 0.43% and 1.22 ± 0.03%, respectively. The “CaMKII Activity With Ca^2+” value came out at 14.2 ± 0.7 pmol/min/µg in data set [3] (setting [9]) and 12.9 ± 1.5 pmol/min/µg in data set [3] (setting [10]). Moreover, the “CaMKII Activity Without Ca^2+” value in data set [3] (setting [9]) is on record as 0.80 ± 0.03(3) pmol min^−1 μg^−1; in data set [3] (setting [10]), 0.16 ± 0.04(5) pmol min^−1 μg^−1. The “field EPSP slope as percentage of pre-tetanus baseline after 10-Hz tetanus” value in data set [4] (B13 double transgenic mice) came out at 132±10%; in data set [4] (wild-type mice) it was 122±6%. In data set [5] (doxycycline treatment in the adult animal), the memory result is on record as “did not affect memory”. The “adult spatial memory and memory for fear conditioning” value in data set [5] (wild-type mice, doxycycline 1 mg/ml during development) is on record as “impaired”. For the same molecule, the “fEPSP slope, % of baseline at 1 hr after two trains” value amounted to 184±18% in data set [2] (Tet-CN279 on doxycycline (mutant sentence), 1 mg/ml in water supply, 1 ng/ml in ACSF) and 191±18% in data set [2] (printed 'Tet-CN279 mutant mice on doxycycline' in the sentence on wild-type mice on or off doxycycline).

As for `CCCCCCOC(=O)[C@]1(O)C[C@@H]2O[C@@]1(C)n1c3ccccc3c3c4c(c5c6ccccc6n2c5c31)C(=O)NC4` [KT5720], the “fEPSP slope, % of baseline at 1 hr after two 100 Hz trains” value in data set [2] (wild-type slices, 1 μM KT5720) is 153±5%. In data set [6] (KT5720 1 μM, 20 minute pretreatment, anisomycin 30 μM one hour prior to tetanus), the “decay of LTP induced by four 100 Hz trains, compared with anisomycin” value is “much more rapid decay”.

Regarding `O=C(O)CN(CCOCCOCCN(CC(=O)O)CC(=O)O)CC(=O)O` [EGTA], the “phosphatase enzyme activity in hippocampal extracts” value turned out to be 0.32±0.14 nmol Pi/min/mg in data set [7] (CN98 mutant + EGTA), 0.427±0.16 nmol Pi/min/mg in data set [7] (CN98 wild-type + EGTA), 0.287±0.17 nmol Pi/min/mg in data set [7] (mutant (Tet-CN279+Tet-CN273) + EGTA) and 0.432 ± 0.11 nmol Pi/min/mg in data set [7] (wild-type (Tet-CN279+Tet-CN273) + EGTA). For the same molecule, in data set [7] (CN98 mutant and wild-type hippocampal extracts in the presence of EGTA), the “phosphatase activity” value is listed as “virtually abolished”.

Regarding `NC(CCCP(=O)(O)O)C(=O)O` (racemic) [DL-A95, DL-AP5], the “NMDA-mediated field potentials in 10 μM DNQX and reduced Mg2+ (50 μM)” value in data set [8] was “completely antagonized”.

`C=CCN1CCc2c(cc(O)c(O)c2Br)[C@@H](c2ccccc2)C1` [6-Br-APB, R(+)-6-Bromo-7,0-dihydroxy-3-allyl-1-phenyl-2,3,4-tetrahydro-1H-3-benzazepine]: the “fEPSP slope, % of baseline at 3 hr after drug application” value in data set [1] (CN98 mutant, 6-Br-APB 100 μM) is 181±41%.

In the case of `COc1ccc(C[C@H]2NC[C@H](O)[C@H]2OC(C)=O)cc1` [anisomycin], the “sensitivity of LTP elicited by two trains to preincubation with the drug” value in data set [2] (wild-type slices, anisomycin 30 μM) was “completely insensitive”. Moreover, the “LTP induced by four trains” value in data set [6] (anisomycin 30 μM) was “reduced”.
